Test system: iPS cell 1210B2 strain
Settings: StemFit AK03N+10 mg/L choline chloride vs StemFit AK03N; suspension culture seeded at 6×10^5 cells/mL; viable cells measured on 8th day of culture; n=1
Protocol: In the following Example, the proliferation effect of induced pluripotent stem cells (iPS cells) by choline were evaluated. As the iPS cell, 1210B2 strain purchased from iPS Academia Japan was used. In addition, as a medium for iPS cells, a commercially available StemFit AKO3N (Ajinomoto Co., Inc.) was used.
Using a 30 mL single use bioreactor for iPS cells (ABLE: BWV-S03A), iPS cell 1210B2 strain was seeded in StemFit AK03N+10 μM Y-27632 (Wako: 034-24024) at a cell density of 6×10^5 cells/mL and the cells were cultured with stirring in a CO2 incubator under the conditions of 37° C., CO2 concentration=5%, stirring speed=120 rpm. On the second day of seeding, 70% of the medium was replaced with StemFit AK03N. […] The cells were transferred to a micro bioreactor ambr15 (sartorius:001-0881), and stirring culture was continued under the conditions of 37° C., pH=7.2, dissolved oxygen concentration=20%, stirring speed=300 rpm. […] On the 8th day of culture, the number of viable cells was measured using Vi-CELL™ XR (Beckman Coulter), a live/dead cell autoanalyzer.

## C[N+](C)(C)CCO.[Cl-] [choline, choline chloride]
  influence of choline on the proliferation of iPS cells (number of viable cells): cell proliferation promoting effect

— US20220348883A1, “HIGH-DENSITY CELL CULTURE METHOD” (AJINOMOTO CO., INC., priority 2020, published 2022)
